# Measured values taken from PMC10119279 (Scientific Reports, 2023).
# Values joined by “and” are separate entries in the source; they are usually repeats but may differ in a detail not shown here. Identical values can stand only once. Like-named read-outs stand apart in the source and are kept apart here.
# Columns and labels:
# [1] = In vivo pharmacokinetic experiment: plasma and urine balenine after acute oral ingestion; set-up: species or system human; conditions: for Urinary balenine excretion: urine up to 24 h; for Cmax: read-out: Cmax (peak plasma concentration)
# Method: Six subjects (3 males and 3 females) participated in this PK study in which three increasing doses were tested. For the third dose, […] was replaced, due to pregnancy, by […] with similar CN1 activity. […] This means that half of the dose was administered as 5 mg/kg (weight-relative part) and the other half was an absolute dose based on the mean weight of the subjects of the third test day (341 mg; fixed part).
# The day before a test day, subjects were asked to refrain from meat and fish. Upon arrival, a catheter was inserted in an antecubital vein and a fasted ethylenediaminetetraacetic acid (EDTA, 4 mL) and serum sample (3.5 mL, to determine CN1 activity) were collected. […] The following 2 h, every 30 min an EDTA blood sample was taken. Then after 3, 4, 5, 8 and 24 h, another sample was withdrawn. Urine was collected after 150 min, 5, 8 and 24 h. The subjects arrived in the lab and remained fasted until 2 h after ingesting the supplement. Subjects remained in the lab until the post 8 h blood sample, and returned the following morning for the post 24 h sample. Throughout the test day, food intake was standardized (lacto-ovo-vegetarian diet) ensuring minimal HCD intake for 24 h following supplement. Figure 5 gives a schematic overview of a test day.
# Plasma samples were collected in pre-cooled (4 °C) EDTA tubes. Upon withdrawal, plasma was immediately deproteinized with 1:11 SSA, centrifuged (5 min, 16 000 g) and stored at − 20 °C.
# Extraction of plasma and urine for UHPLC-MS/MS analysis went as follows: 150 µL of deproteinized plasma/urine (not deproteinized) was added to 215 µL of acetonitrile containing 1% formic acid, 10 µL of internal standard (IS) (carnosine-D4) and 25 µL ultrapure water or standard (calibration curve and quality control samples (QC)). Then samples were vortexed and centrifuged (15 min, 4 °C, 15,000 g). Supernatant was used for further analyses.
# In the in vitro study, supernatant was diluted 40 times before injection. In the PK study, plasma samples from the 10 mg/kg condition and baseline urine samples were diluted 100 times. All other urine samples were diluted 1000 times. Dilutions were conducted with acetonitrile containing 1% formic acid.
# Analyses were performed on a UHPLC-MS/MS platform consisting of an Acquity H-Class Quaternary Solvent Manager and Flow-Through-Needle Sample Manager with temperature controlled tray (8 °C) and column oven (60 °C). Chromatographic separation was achieved on an Acquity UPLC BEH amide column (2.1 mm × 100 mm, 1.7 µm) with an Acquity amide Vanguard pre-column. The system operated at a flow rate of 0.3 mL/min with solvent A (ultrapure water), solvent B (acetonitrile) and solvent C (200 mM ammonium formate with 0.04% ammonia) with the gradient shown in Table 2. The UPLC column effluent was interfaced to a Xevo TQ-XS® MS/MS system (plasma samples) and Xevo TQ-S® (urine samples), equipped with an electrospray ionization (ESI) probe operating in positive ion mode. Further MS settings included desolvation gas flow rate (15 L/h), desolvation temperature (600 °C), cone gas flow rate (800 L/h), source temperature (150 °C) and capillary voltage (0.75 kV). Transition details are depicted in Table 3. […] The detector operated in multiple reacting monitoring mode, scanning the two most intense transitions of the HCDs. Masslynx software 4.2 was used for instrument control and data extraction. Hardware and software were purchased from Waters (Milford, MA, USA).
# CN1 activity was quantified by fluorometric determination of histidine following carnosine addition (based on Teufel et al., 2003).
# [2] = test system: Sprague Dawley rats
# Method: Following treatment, a 2 week observation period with twice daily examination for morbidity and mortality was performed.
# [3] = compared to carnosine and anserine; cited from earlier work
# [4] = set-up: method as in PMID 30449006; conditions: ref 10; cited from earlier work
compound,measurement,setting,value
"Cn1cnc(CC(NC(=O)CCN)C(=O)O)c1 [balenine, β-alanyl-N(τ)-methyl-L-histidine]",Urinary excretion as % of the ingested dose,[1]; 1 mg/kg oral,27.3%
same,Urinary balenine excretion,[1]; 1 mg/kg oral,19.3 ± 13.1 mg
same,Time plasma balenine remained significantly increased,[1]; 4 mg/kg oral,up to 3 h
same,Urinary excretion as % of the ingested dose,[1]; 4 mg/kg oral,29.7%
same,Urinary balenine excretion,[1]; 4 mg/kg oral,82.0 ± 40.5 mg
same,Cmax of balenine relative to anserine at the same dose,[1]; 10 mg/kg oral,25.9 fold
same,Plasma iAUC of balenine relative to anserine,[1]; 10 mg/kg oral,136 fold
same,Time plasma balenine remained significantly increased,[1]; 10 mg/kg oral,up to 8 h
same,Urinary excretion as % of the ingested dose,[1]; 10 mg/kg oral,25.2%
same,Cmax,"[1]; 10 mg/kg oral (fragmented dose), human, n = 6",28 µM
same,Plasma iAUC,"[1]; 10 mg/kg oral, human",8960 µM·min
same,Urinary balenine excretion,[1]; 10 mg/kg oral,176 ± 95.9 mg
same,Average excreted percentage of the dose in urine (intact),"[1]; average over doses, n = 6",27.4%
same,Cmax,"[1]; both sexes, human, plasma, po, 1 mg/kg, 1 mg/kg oral, human, n = 6",1.6 ± 0.5 µM
same,Cmax,"[1]; both sexes, human, plasma, po, 4 mg/kg, 4 mg/kg oral, human, n = 6",7.1 ± 1.2 µM
same,Cmax,"[1]; both sexes, human, plasma, po, 10 mg/kg, 10 mg/kg oral (fragmented dose), human, n = 6",28.2 ± 7.4 µM
same,Cmax ratio 4 mg/kg vs 1 mg/kg,"[1]; oral, human",4.4 times
same,Cmax ratio 10 mg/kg vs 1 mg/kg,"[1]; oral, human",17.6 fold and 18 fold
same,Cmax ratio 10 mg/kg vs 4 mg/kg,"[1]; oral, human",4 times
same,Urinary excretion after 1 mg/kg: times lower than after 4 mg/kg,"[1]; oral, human",4 times
same,iAUC ratio 4 mg/kg vs 1 mg/kg,"[1]; oral, human",3.8 times
same,iAUC ratio 10 mg/kg vs 1 mg/kg,"[1]; oral, human",14.2 fold
same,iAUC ratio 10 mg/kg vs 4 mg/kg,"[1]; oral, human",3.7 times
same,"Pathological changes, morbidity and mortality","[2]; female Sprague Dawley rats, acute increasing doses up to 2000 mg/kg, 2 week observation",No pathological changes were observed in any animal
same,Dose concluded safe,"[2]; female, Sprague Dawley, rat, in vivo, 2 weeks",2000 mg/kg
same,Antioxidant and iron-chelating capacity,[3],higher antioxidant and iron-chelating capacity than carnosine and anserine
same,Ability to quench reactive aldehydes such as HNE and acrolein,[4],lacks the ability to quench reactive aldehydes
